Article PMC11149917, “Translational and Therapeutic Evaluation of RAS-GTP Inhibition by RMC-6236 in RAS-Driven Cancers” (Cancer Discovery, 2024)
Values joined by “and” are separate entries in the source; they are usually repeats but may differ in a detail not shown here. Equal values may be shown once. Read-outs that look alike come from different tables or passages of the source.

Legend:
[1] = tested on: DUSP6 mRNA in Capan-2 xenograft tumors; assay: In vivo PD by DUSP6 qPCR and PK/PD relationship; parameters: species or system mouse; conditions: for inhibition at 25 mg/kg: single oral dose 25 mg/kg
Protocol: (§1) Tumor-bearing animals were randomized and assigned into groups (n = 1–10/group). The vehicle at 10 mL/kg or RMC-6236 at indicated doses was administered via oral gavage daily, and animals were treated for 28 days, or up to 90 days if PFS was being assessed. […] For single-dose PKPD study, mice were randomized and assigned into groups (n = 3/dose/time point). A single dose of RMC-6236 was administered orally at either 3, 10, or 25 mg/kg. Blood and tissues, including the tumor, brain, colon, ear skin, and muscle, were harvested at indicated time points. Whole blood was collected in K2EDTA Microtainer tubes, incubated for 5 minutes, and snap-frozen in liquid nitrogen. The tissue was either fixed in 10% formalin or snap-frozen in liquid nitrogen for further analysis.
(§2) RNA was extracted from at least 20 mg of tissue using an RNeasy Mini Kit (Qiagen, 74104) and a High-Throughput Tissue grinder following the manufacturer's protocol. Reverse transcription was carried out using High-Capacity cDNA Reverse Transcription Kit (ABI, 4368814) according to the manufacturer's protocol. The cDNA product was used for qPCR analysis using TaqMan Gene-Expression Master Mix (ABI, 4369016). TaqMan primer probes specific to DUSP6 (human—Hs00737962_m1, murine—Mm00518185_m1, FAM-MGB) and 18S (RNA18S1; human—Hs99999901_s1, murine—Mm03928990_g1, FAM-MGB, used as an internal control gene) were used to detect the levels from each sample in duplicates using a 10 µL final reaction volume in a 384-well clear optical reaction plate. For qPCR, Ct values of DUSP6 and 18S were obtained for analysis. DUSP6 Ct value was normalized to 18S, and then the mean relative mRNA expression levels of each group were normalized to the vehicle control group. Values were plotted as relative change in mRNA expression compared with vehicle. Means ± SEM were shown.
(§3) Concentrations of RMC-6236 in tumor or normal tissues and percentage of DUSP6 inhibition as compared with the vehicle control from individual animals were collected and analyzed post a single dose of RMC-6236 ranging from 0.3 to 100 mg/kg (Supplementary Table S6). A 3-parameter sigmoidal exposure–response model was fitted to the data in GraphPad Prism to derive EC50 and EC90 values.

[2] = tested on: DUSP6 mRNA in HPAC xenograft tumors; assay: In vivo PD by DUSP6 qPCR and PK/PD relationship; parameters: species or system mouse; conditions: for % inhibition of DUSP6 vs control: individual animals
Protocol: as §1, §2, §3

[3] = tested on: eCT26 syngeneic tumors; assay: Flow-cytometric analysis of tumor microenvironment; assay type: in vivo, mouse
Protocol: For the TME analysis, tumor tissue was collected 24 hours post the last dose after 4 days of treatment with vehicle or RMC-6236 and was processed for flow-cytometric analysis. […] For the RMC-6236–treated group, the tumor average on day 0 was 445 ± 163 mm^3, and it regressed by day 4 to 71 ± 32 mm^3. Tumor tissue was minced, processed with the Dri Tumor & Tissue Dissociation Reagent from BD Biosciences and homogenized with the gentleMACS Dissociator. Tumor cell suspensions were incubated at 4°C for 30 minutes with Mouse BD Fc Block (Clone 2.4G2 from BD Pharmingen), 10 minutes with Blue Dead Cell Stain Kit (from Invitrogen) and 30 minutes in cell staining buffer. […] Cells were analyzed on a 4-laser Cytek Aurora (Cytek Biosciences), and data analysis was done using SpectroFlo (Cytek Biosciences) and FlowJo (FlowJo LLC).

## CCn1c(-c2cc(N3CCN(C)CC3)cnc2[C@H](C)OC)c2c3cc(ccc31)-c1csc(n1)C[C@H](NC(=O)[C@H]1C[C@@H]1C)C(=O)N1CCC[C@H](N1)C(=O)OCC(C)(C)C2 [RMC-6236]
[1]; Capan-2, study Capan-2 #3_PHA 2023, 25 mg/kg, 24h
  % inhibition of DUSP6 vs control: 98.907% and 98.6911% and 98.7269%
[1]; Capan-2, study Capan-2 #3_PHA 2023, 25 mg/kg, 48h
  % inhibition of DUSP6 vs control: 96.0869% and 85.1406% and 97.2234%
[1]; Capan-2, study Capan-2 #3_PHA 2023, 50 mg/kg, 2h
  % inhibition of DUSP6 vs control: 97.4183% and 94.6174% and 95.5361%
[1]; Capan-2, study Capan-2 #3_PHA 2023, 50 mg/kg, 4h
  % inhibition of DUSP6 vs control: 99.0713% and 99.3957% and 99.0419%
[1]; Capan-2, study Capan-2 #3_PHA 2023, 50 mg/kg, 24h
  % inhibition of DUSP6 vs control: 99.0809% and 99.0285% and 99.0385%
[1]; Capan-2, study Capan-2 #3_PHA 2023, 50 mg/kg, 48h
  % inhibition of DUSP6 vs control: 95.4581% and 92.3614% and 98.0435%
[1]; Capan-2, study Capan-2 #3_PHA 2023, 100 mg/kg, 2h
  % inhibition of DUSP6 vs control: 98.9837% and 95.8781% and 93.4418%
[1]; Capan-2, study Capan-2 #3_PHA 2023, 100 mg/kg, 4h
  % inhibition of DUSP6 vs control: 98.7746% and 99.0452% and 98.9369%
[1]; Capan-2, study Capan-2 #3_PHA 2023, 100 mg/kg, 8h
  % inhibition of DUSP6 vs control: 99.0419% and 99.2026%
[1]; Capan-2, study Capan-2 #3_PHA 2023, 100 mg/kg, 24h
  % inhibition of DUSP6 vs control: 99.1943% and 99.2814% and 99.0809%
[1]; Capan-2, study Capan-2 #3_PHA 2023, 100 mg/kg, 48h
  % inhibition of DUSP6 vs control: 98.7617% and 95.9908% and 98.9515%
[1]; Mus musculus, Capan-2, single oral dose 10 mg/kg, 8 hours after dose, read-out: inhibition of tumor DUSP6 levels (relative to vehicle control)
  inhibition at 10 mg/kg: > 95%
[1]; Mus musculus, Capan-2, 8 hours after dose, read-out: inhibition of tumor DUSP6 levels (relative to vehicle control)
  inhibition at 25 mg/kg: > 95%
[1]; Mus musculus, Capan-2, up to 24 hours after dose, read-out: inhibition of tumor DUSP6 levels (relative to vehicle control)
  inhibition at 25 mg/kg: > 90%
[1]; Mus musculus, Capan-2 xenograft tumors, read-out: EC50, inhibition of DUSP6 expression vs RMC-6236 concentration (PK/PD relationship)
  EC50: 90 nM
[1]; Mus musculus, Capan-2 xenograft tumors, read-out: EC90, inhibition of DUSP6 expression vs RMC-6236 concentration (PK/PD relationship)
  EC90: 809 nM
[2]; HPAC #3, 50 mg/kg, 4h
  % inhibition of DUSP6 vs control: 99.6% and 99.3%
[2]; HPAC #3, 50 mg/kg, 8h
  % inhibition of DUSP6 vs control: 99.8% and 99.7%
[2]; HPAC #3, 50 mg/kg, 24h
  % inhibition of DUSP6 vs control: 99.9% and 99.8%
[2]; HPAC #3, 50 mg/kg, 48h
  % inhibition of DUSP6 vs control: 99.3% and 98% and 97.1%
[2]; HPAC #4, 3 mg/kg, 4h
  % inhibition of DUSP6 vs control: 8.1% and 58% and 27.9%
[2]; HPAC #4, 3 mg/kg, 8h
  % inhibition of DUSP6 vs control: 54.7% and 65.2% and 84.3%
[2]; HPAC #4, 3 mg/kg, 24h
  % inhibition of DUSP6 vs control: 0% and 40.8% and 37.2%
[2]; HPAC #4, 3 mg/kg, 48h
  % inhibition of DUSP6 vs control: 0% and 22.7% and 33.9%
[2]; HPAC #4, 10 mg/kg, 4h
  % inhibition of DUSP6 vs control: 93.6% and 96.1% and 97.9%
[2]; HPAC #4, 10 mg/kg, 8h
  % inhibition of DUSP6 vs control: 98.9% and 99.6% and 97.1%
[2]; HPAC #4, 10 mg/kg, 24h
  % inhibition of DUSP6 vs control: 80.3% and 56.7% and 91.1%
[2]; HPAC #4, 10 mg/kg, 48h
  % inhibition of DUSP6 vs control: 8.1% and 47% and 59.6%
[2]; HPAC #4, 25 mg/kg, 4h
  % inhibition of DUSP6 vs control: 99.6% and 97.7% and 93.3%
[2]; HPAC #4, 25 mg/kg, 8h
  % inhibition of DUSP6 vs control: 99.9% and 99.4% and 99.8%
[2]; HPAC #4, 25 mg/kg, 24h
  % inhibition of DUSP6 vs control: 99.3% and 99.2% and 99.6%
[2]; HPAC #4, 25 mg/kg, 48h
  % inhibition of DUSP6 vs control: 97.6% and 96.7% and 87.9%
[2]; HPAC #11, 0.3 mg/kg, 4h
  % inhibition of DUSP6 vs control: 0% and 41.7%
[2]; HPAC #11, 0.3 mg/kg, 8h
  % inhibition of DUSP6 vs control: 9.1% and 10.7% and 76.7%
[2]; HPAC #11, 0.3 mg/kg, 24h
  % inhibition of DUSP6 vs control: 0%
[2]; HPAC #11, 0.3 mg/kg, 48h
  % inhibition of DUSP6 vs control: 0%
[2]; HPAC #11, 1 mg/kg, 4h
  % inhibition of DUSP6 vs control: 48.3% and 77.5% and 97.1%
[2]; HPAC #11, 1 mg/kg, 8h
  % inhibition of DUSP6 vs control: 86.3% and 83.8% and 49.4%
[2]; HPAC #11, 1 mg/kg, 24h
  % inhibition of DUSP6 vs control: 4.9% and 0% and 23.3%
[2]; HPAC #11, 1 mg/kg, 48h
  % inhibition of DUSP6 vs control: 24.6% and 0% and 42.3%
[2]; Mus musculus, HPAC, read-out: EC50, inhibition of DUSP6 expression vs RMC-6236 concentration (PK/PD relationship)
  EC50: 135 nM
[2]; Mus musculus, HPAC, read-out: EC90, inhibition of DUSP6 expression vs RMC-6236 concentration (PK/PD relationship)
  EC90: 925 nM
[3]; 4 days of treatment, day 0 average 445 ± 163 mm^3
  tumor volume average on day 4: 71 ± 32 mm^3
[3]; after 4 days of 25 mg/kg po qd
  monocytic and granulocytic myeloid-derived suppressor cells and M2 macrophages: decreased
[3]; after 4 days of 25 mg/kg po qd, relative to vehicle
  CD4^+ and CD8^+ T cells in the tumor microenvironment: significant increase
